Laboratory results: article PMC5675611, “GZD824 suppresses the growth of human B cell precursor acute lymphoblastic leukemia cells by inhibiting the SRC kinase and PI3K/AKT pathways” (Oncotarget, 2016)

Columns and labels:
Format in all cases: cell-based, human
NALM6 cells [1] = test: Annexin V apoptosis flow cytometry
Procedure: Human pre-B ALL cell lines NALM6 and SUPB15 were purchased from American Type Culture Collection (ATCC, Maryland, USA). All pre-B ALL cell lines were maintained in cell culture media and conditions as recommended by the ATCC. Cells were treated with GZD824 for 24 hours. GZD824 (3μM, 1μM, or 0.5μM) was used in the experiments unless otherwise noted. NALM6 and SUPB15 cells were maintained in RPMI-1640 medium (Gibco, New York, NY, USA) with 10% fetal bovine serum (Biochrom, Melbourne, Australia).
For identification of apoptotic cells among NALM6, SUPB15, and primary pre-B ALL cells, the GZD824-treated cells were stained with Annexin V Apoptosis Detection Kit (88-8007, BD ebioscience, CA, USA) according to the manufacturer's instructions (Affymetrix ebioscience, CA, USA) and then subjected to flow cytometric analysis by the Accuri™ C6 (BD Biosciences, CA, USA). For the in vitro drug sensitivity test in Figure 6A, the human CD45+ cells in spleen and bone marrow from sick mice account for over 95% of the total. We enriched human CD45+ cells in PB by MACS according to the manufacturer's instruction. After the enrichment, the purity of human CD45+ cell in PB reached 95%. The percentage of apoptotic cells was demarcated as the amount of both early and late facets of apoptosis (annexin V positive), as previously described. All data were analyzed with FlowJo software (Tree Star, Inc., Ashland, USA).

NALM6 cells [2] = test: Cell-cycle analysis (PI staining, flow cytometry)
Procedure: Human pre-B ALL cell lines NALM6 and SUPB15 were purchased from American Type Culture Collection (ATCC, Maryland, USA). All pre-B ALL cell lines were maintained in cell culture media and conditions as recommended by the ATCC. Cells were treated with GZD824 for 24 hours. GZD824 (3μM, 1μM, or 0.5μM) was used in the experiments unless otherwise noted. NALM6 and SUPB15 cells were maintained in RPMI-1640 medium (Gibco, New York, NY, USA) with 10% fetal bovine serum (Biochrom, Melbourne, Australia). Cell cycle analysis was performed by flow cytometry after propidium iodide (PI) staining as described. Approximately 2 × 10^6 cells were suspended in 0.5 ml of phosphate-buffered saline (PBS) and vortexed with 3 ml of 80% ethanol. Cells were fixed at 4°C for 1 hr, washed with PBS, re-suspended in PBS, and vortexed vigorously. Cells were re-suspended in 1 ml of PBS containing 50 μg/ml of DNase-free RNase A (EN0531, Thermo Fisher scientific, Waltham, USA) and 50 μg/ml of propidium iodide PI (P4170, Sigma Aldrich, St. Louis, MO, USA). Cells were stained for at least 1 hr at room temperature in the dark. Stained cells were then subjected to flow cytometric analysis by an Accuri™ C6 (BD Biosciences, CA, USA).

C-Myc = test: Western blot of NALM6 cells; settings: NALM6, 1μM or 3μM, 24 hours
Procedure: (§1) Figure 5 GZD824 inhibits the SRC kinase in pre-B ALL cells A-C. Western blot analysis of […]-treated NALM6 cells. Cells were treated with DMSO, GZD824 (1μM), or GZD824 (3μM) for 24 hours. Lysates were analyzed with antibodies to (A) phospho-SRC and SRC; (B) phospho-STAT3 and STAT3; and (C) phospho-Rb, Rb, and C-Myc. D. qRT-PCR products of BCL-XL, CCND1, CDK4, and CCK[…] mRNA were normalized to GAPDH and presented as fold increase or decrease compared to control, 24 hours after treatment with 3 μM GZD824. E. NALM6 cells were treated with GZD824, SRC inhibitor (KX2-391), STAT3 inhibitor (HO-3867), or DMSO for 24 hours. Statistical analysis of Annexin V-positive cells in 3μM of drug treated NALM6 cells. All data from independent experiments are presented as mean ± SEM. Significance values: ^*P<0.05; ^**P<0.01; ^***P<0.001. For Western blot analysis, 30 μg of total protein extracts prepared from NALM6 or primary pre-B ALL cells from SP of PDX mice were separated on SDS-PAGE and transferred to a PVDF membrane (Bio-Rad, Hercules, CA, USA). The following commercially available antibodies and dilutions were used for Western blotting: human anti-STAT3 (ab119352, Abcam, UK), human anti-phospho-STAT3 (Y705) (ab76315, Abcam, UK), human anti-SRC (ab32102, Abcam, UK), human anti-phospho-SRC ([…]) (ab185617, Abcam, UK), human anti-RB (9313, Cell Signaling Technology, MA, USA), human anti-phospho-RB (Ser807/811) (8516, Cell Signaling Technology, MA, USA), human anti-C-myc (13987, Cell Signaling Technology, MA, USA), anti-AKT (pan) ([…], Cell Signaling Technology, MA, USA), anti-phospho-AKT (Ser473) ([…], Cell Signaling Technology, MA, USA), anti-IRS-1 ([…], Cell Signaling Technology, MA, USA), and human anti-β-actin (4970, Cell Signaling Technology, MA, USA). Western blot analysis was performed with cell lines or primary pre-B ALL cells from SP following GZD824 treatment, and signal intensities were normalized to β-actin signals.

phospho-Rb = test: Western blot of NALM6 cells; settings: NALM6, 1μM or 3μM, 24 hours
Procedure: as §1

phospho-SRC = test: Western blot of NALM6 cells; settings: NALM6, 1μM or 3μM, 24 hours
Procedure: as §1

phospho-STAT3 = test: Western blot of NALM6 cells; settings: NALM6, 1μM or 3μM, 24 hours
Procedure: as §1

For `Cc1ccc(C(=O)Nc2ccc(CN3CCN(C)CC3)c(C(F)(F)F)c2)cc1C#Cc1cnc2[nH]ncc2c1` [GZD824], the “percentages of apoptotic cells” value (NALM6 cells [1]; NALM6, 500 nM) was “did not increase”, the apoptotic rate (NALM6 cells [1]; NALM6, 1μM, 24 h) was “moderate” and the “apoptosis (Annexin V-positive cells), comparison of inhibitors” value (NALM6 cells [1]; NALM6, 3μM of drug, 24 hours, Fig 5E) was “significantly increased apoptotic level”. The “cells undergoing apoptosis (AnnexinV+)” value (NALM6 cells [1]; NALM6, 3μM, 24 h) was 74.4%, the “proportions of the G0/G1 fraction” value (NALM6 cells [2]; NALM6, 500 nM) was “increased” and the “percentage of the G0/G1 fraction” value (NALM6 cells [2]; NALM6, 3μM, 24 hours) was 71.6%. The c-Myc oncogene expression (C-Myc) was “downregulated”, the Rb phosphorylation (phospho-Rb) was “suppressed” and the “phosphorylated SRC” value (phospho-SRC) was “reduced”. For the same molecule, the “phosphorylated STAT3” value (phospho-STAT3) was “reduced”.
